In patent US6534524B1, “Indazole compounds and pharmaceutical compositions for inhibiting protein kinases, and methods for their use” (Agouron Pharmaceuticals, Inc., priority 1999, dated 2003):
Like-named read-outs stand apart in the source and are kept apart here. Values belong to the compound of their own block, whether it stands above or below them.

Tests used:
[1] = target: unphosphorylated VEGF-R2Δ50 (FLVK) (Homo sapiens, UniProt P35968, DEL940-989/E990V); test: VEGF-R2 coupled spectrophotometric assay, unphosphorylated VEGF-R2Δ50 (FLVK); conditions: for Ki: FLVK Ki, Table 1; for inhibition at 0.05 µM: read-out: FLVK % inhibition
[2] = test system: human umbilical vein endothelial cells (HUVEC); test: HUVEC proliferation assay (VEGF-stimulated, MTT); assay type: cell-based; conditions: Homo sapiens, HUVEC, + albumin; read-out: HUVEC + albumin IC50
[3] = Determination of inhibitor concentration in mouse plasma after intraperitoneal and oral dosing; assay type: in vivo
Protocol: Blood collection was via ocular bleed at 0.5, 1, 4 hr with the final time point, 7 hour, via intracardiac puncture. The blood was centrifuged to collect plasma, which was then stored at −80° C. until analysis. Samples were prepared for analysis using an internal standard and sodium hydroxide. After vortexing, ethyl acetate was added and mixed for 15-20 minutes at ambient temperature. […] The samples were then analyzed via HPLC or LC-MS. Compound levels were quantitated by generating a standard curve of known compound concentration in mouse plasma.

[4] = PO, 25 mg/kg, vehicle PEG400:H2O pH 2.3 30:70
[5] = female, PO, 25 mg/kg, vehicle PEG400:H2O pH 2.3 30:70, read-out: Cmin (7 hr conc.)
[6] = IP, 25 mg/kg, vehicle PEG400:H2O pH 2.3 30:70
[7] = PO, 50 mg/kg, vehicle PEG400:H2O pH 2.3 30:70
[8] = PO, 10 mg/kg, vehicle PEG400:H2O pH 2.3 60:40

Sequence of unphosphorylated VEGF-R2Δ50 (FLVK) (P35968 with tags, fused parts or gaps DEL940-989/E990V limits assumed): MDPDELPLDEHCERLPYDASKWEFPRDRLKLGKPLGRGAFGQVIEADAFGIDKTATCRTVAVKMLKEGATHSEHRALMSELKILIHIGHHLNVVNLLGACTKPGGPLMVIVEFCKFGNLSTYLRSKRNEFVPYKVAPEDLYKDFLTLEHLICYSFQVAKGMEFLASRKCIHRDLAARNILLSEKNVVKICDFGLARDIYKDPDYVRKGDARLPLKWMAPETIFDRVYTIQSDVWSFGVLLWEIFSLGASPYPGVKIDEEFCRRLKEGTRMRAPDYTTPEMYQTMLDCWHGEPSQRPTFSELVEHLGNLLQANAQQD

SMILES: COc1cc(-c2ccc3c(-c4cc5ccccc5[nH]4)n[nH]c3c2)ccc1O [Example 2(d), 3-(1H-Indol-2-yl)-6-(3-methoxy-4-hydroxy-phenyl)-1H-indazole]
Ki [1]: 3.7 nM

SMILES: COCOc1ccc(Oc2ccc3c(/C=C/c4ccccc4)n[nH]c3c2)cc1 [Example 8(b), 3-(E-Styryl)-6-[4-(methoxymethoxy)phenoxy]-1H-indazole]
Ki [1]: 72 nM

Ki [1]: 2.95 nM
SMILES: O=C(c1cccc(NC(=O)C2CC2)c1)c1ccc2c(/C=C/c3ccccn3)n[nH]c2c1 [Example 41(k), 6-[3-(Cyclopropylcarboxanido)benzoyl]-3-E-[2-(pyridin-2-yl)ethenyl]-1H-indazole]

SMILES: Oc1ccc(-c2ccc3c(-c4cc5ccccc5o4)n[nH]c3c2)cc1OCc1ccccc1 [Example 2(e), 3-(Benzofuran-2-yl)-6-(3-benzyloxy-4-hydroxy-phenyl)-1H-indazole]
Ki [1]: 40 nM

SMILES: CC(=O)c1cccc(C(=O)Nc2cccc(N(C)c3ccc4c(/C=C/c5ccc6c(c5)OCO6)n[nH]c4c3)c2)c1 [Example 16(e), 3-Acetyl-N-(3-{[3-(2-benzo[1,3]dioxol-5-yl-vinyl)-1H-indazol-6-yl]-methyl-amino}-phenyl)-benzamide]
Ki [1]: 1.3 nM

SMILES: C=C(c1cccc(NC(=O)OCc2ccccc2)c1)c1ccc2c(/C=C/c3ccccc3)n[nH]c2c1 [Example 22(c)]
Ki [1]: 0.64 nM

SMILES: Cc1cc(C(=O)Nc2cc(Nc3ccc4c(/C=C/c5ccccn5)n[nH]c4c3)c(F)cc2C)n(C)n1 [Example 48(b), 6N-(5-((1,3-Dimethyl-1H-pyrazol-5-yl)carboxanddo)-2-fluoro-4-methylphenyl)aminol-3-E-[2-(pyridin-2-yl)ethenyl]-1H-indazole]
IC50 [2]: ~8 nM
AUClast [3, 4]: 2191 ng·h/mL
plasma half-life (T1/2) [3, 4]: 4 h
concentration at 7 h [3, 5]: 136 ng/mL

SMILES: CCn1nc(C)cc1C(=O)Nc1cccc(Oc2ccc3c(/C=C/c4c[nH]cn4)n[nH]c3c2)c1 [Example 32(b), 6-[3-((1-Ethyl-3-methyl-1H-pyrazol-5-yl)carboxamido)phenoxy]-3-E-[2-(1H-imidazol-4-yl)ethenyl]-1H-indazole]
Ki [1]: 0.08 nM

SMILES: CN(c1cccc(NC(=O)OCc2ccccc2)c1)c1ccc2c(/C=C/c3ccccc3)n[nH]c2c1 [Example 12(c), {3-[Methyl-(3-styryl-1H-indazol-6-yl)-amino]-phenyl}-carbamic Acid Benzyl Ester]
Ki [1]: 1.6 nM

SMILES: Cc1cc(C(=O)Nc2cc(Nc3ccc4c(/C=C/c5ccccn5)n[nH]c4c3)ccc2F)n(C)n1.Cl [Example 59(d), 6-[N-(3-((1,3-Dimethyl-1H-pyrazol-5-yl)carboxamido)4-fluoro-phenyl)amino]-3-E-[2-(pyridin-2-yl)ethenyl]-1H-indazole Hydrochloride]
AUC(0-t) ([3]; female, PO, 8 mg/kg, vehicle 0.5% CMC): > 24700 ng·h/mL
Cmax ([3]; female, PO, 8 mg/kg, vehicle 0.5% CMC, read-out: Cmax): > 5000 ng/mL
concentration at 7 h ([3]; female, PO, 8 mg/kg, vehicle 0.5% CMC, read-out: Cmin (7 hr conc.)): 1900 ng/mL
AUC(0-t) ([3]; female, PO, 40 mg/kg, vehicle 0.5% CMC): > 32300 ng·h/mL
Cmax ([3]; female, PO, 40 mg/kg, vehicle 0.5% CMC, read-out: Cmax): > 5000 ng/mL
concentration at 7 h ([3]; female, PO, 40 mg/kg, vehicle 0.5% CMC, read-out: Cmin (7 hr conc.)): 4140 ng/mL
AUC(0-t) ([3]; female, PO, 200 mg/kg, vehicle 0.5% CMC): > 123000 ng·h/mL
Cmax ([3]; female, PO, 200 mg/kg, vehicle 0.5% CMC, read-out: Cmax): > 20000 ng/mL
concentration at 7 h ([3]; female, PO, 200 mg/kg, vehicle 0.5% CMC, read-out: Cmin (7 hr conc.)): 12700 ng/mL

SMILES: Oc1ccc(Oc2ccc3c(/C=C/c4ccccc4)n[nH]c3c2)cc1 [Example 9(b), 3-(E-Styryl)-6-[4-hydroxyphenoxy]-1H-indazole]
Ki [1]: 24 nM

SMILES: CN(O)C(=O)c1ccccc1Sc1ccc2c(/C=C/c3ccccn3)n[nH]c2c1 [Example 35(o), 6-[2-(N-Hydroxy-N-methylcarbamoyl)phenylsulfanyl]-3-E-[2-(pyridin-2-yl)ethenyl]-1H-indazole]
IC50 [2]: > 100 nM
AUClast [3, 4]: 683 ng·h/mL
Cmax [3, 4]: 486 ng/mL
plasma half-life (T1/2) [3, 4]: 1.0 h
concentration at 7 h [3, 5]: 3 ng/mL

AUClast [3, 6]: 2840 ng·h/mL
plasma half-life (T1/2) [3, 6]: 0.8 h
AUClast [3, 7]: 4048 ng·h/mL
plasma half-life (T1/2) [3, 7]: 0.8 h
concentration at 7 h ([3]; female, IP, 25 mg/kg, vehicle PEG400:H2O pH 2.3 30:70, read-out: Cmin (7 hr conc.)): 12 ng/mL
concentration at 7 h ([3]; female, PO, 50 mg/kg, vehicle PEG400:H2O pH 2.3 30:70, read-out: Cmin (7 hr conc.)): 13 ng/mL
SMILES: CC(C)NC(=O)c1ccccc1Sc1ccc2c(/C=C/c3ccccn3)n[nH]c2c1 [Example 35(b), 6-[2-(i-Propylcarbamoyl)phenylsulfanyl]-3-E-[2-(pyridin-2-yl)ethenyl]-1H-indazole]

SMILES: CN(c1cccc(NC(=O)c2cccc(C(F)(F)F)c2)c1)c1ccc2c(/C=C/c3ccc4c(c3)OCO4)n[nH]c2c1 [Example 16(d), N-(3-{[3-(2-Benzo[1,3]dioxol-5-yl-vinyl)-1H-indazol-6-yl]-methyl-amino}-phenyl)-3-trifluoromethyl-benzamide]
Ki [1]: 0.43 nM

SMILES: Nc1ccc(CNC(=O)c2ccccc2Sc2ccc3c(/C=C/c4ccccn4)n[nH]c3c2)cc1 [Example 35(l)]
inhibition at 0.05 µM [1]: 90%

SMILES: Cc1cccc(C(=O)Nc2cccc(Oc3ccc4c(/C=C/c5ccccc5)n[nH]c4c3)c2)c1 [5b]
AUClast [3, 8]: 61 ng·h/mL
plasma half-life (T1/2) [3, 8]: 3.1 h

SMILES: NNC(=O)c1ccccc1Sc1ccc2c(/C=C/c3ccccn3)n[nH]c2c1 [Example 35(ii), 6-[2-(Aminocarbamoyl)phenylsulfanyl]-3-E-[2-(pyridin-2-yl)ethenyl]-1H-indazole]
inhibition at 0.05 µM [1]: 44%

SMILES: Cc1cc(C(=O)Nc2cccc(C(=O)c3ccc4c(/C=C/c5ccccn5)n[nH]c4c3)c2)n(C)n1.Cl [Example 59(b), 6-[3-((1,3-Dimethyl-1H-pyrazol-5-yl)carboxamido)benzoyl]-3-E-[2-(pyridin-2-yl)ethenyl]-1H-indazole Hydrochloride]
AUC(0-t) ([3]; female, PO, 50 mg/kg, vehicle CMC): 276000 ng·h/mL
concentration at 7 hr ([3]; female, PO, 50 mg/kg, vehicle CMC, read-out: Cmin (7 hr conc.)): 26900 ng/mL

SMILES: CNC(C(=O)Nc1cccc(C(=O)c2ccc3c(/C=C/c4ccccc4)n[nH]c3c2)c1)c1ccccc1 (stereo not drawn) [Example 19(p), 6-[3-(2-Methylamino-2-phenylacetamido)benzoyl]-3-E-styryl-1H-indazole]
Ki [1]: 1.5 nM

SMILES: Cc1cnc(C(=O)Nc2cccc(Oc3ccc4c(/C=C/c5ccccc5)n[nH]c4c3)c2)s1 [Example 5(a), 5-Methyl-thiazole-2-carboxylic Acid {3-(3-Styryl-1H-indazol-6-yloxy)-phenyl]-amide]
Ki [1]: 0.03 nM

plasma half-life (T1/2) [3, 4]: 5.2 h
AUC(0-t) ([3]; female, IP, 25 mg/kg, vehicle PEG400:H2O pH 2.3 30:70): > 27000 ng·h/mL
SMILES: Cc1cc(C(=O)Nc2cccc(C(=O)c3ccc4c(/C=C/c5ccccn5)n[nH]c4c3)c2)cc(Cl)n1 [Example 41(q), 6-[3-((2-Chloro-6-methylpyridin-4-yl)carboxanlido)benzoyl]-3-E-[2-(pyridin-2-yl)ethenyl]-1H-indazole]

SMILES: C=C(c1cccc(N)c1)c1ccc2c(/C=C/c3ccccc3)n[nH]c2c1 [Example 21, 6-(1-(3-Aminophenyl)-vinyl)-3-styryl-1H-indazole]
Ki [1]: 4.6 nM

AUClast [3, 4]: Blq
Cmax [3, 4]: Blq
Cmin (7 hr conc.) [3, 4]: blq
plasma half-life (T1/2) [3, 4]: blq
SMILES: CC(C)COC(=O)Nc1cccc(C(=O)c2ccc3c(/C=C/c4ccccn4)n[nH]c3c2)c1 [Example 41(y)]

SMILES: CCn1nc(C)cc1C(=O)Nc1cccc(Oc2ccc3c(/C=C/c4cn(C)c(C)n4)n[nH]c3c2)c1 [Example 31(f), 6-[3-((1-Ethyl-3-methyl-1H-pyrazol]-5-yl)carboxanido)phenoxyl-3-E-[2-(1,2-dimethyl-1Himidazol-4-yl)ethenyl]-1H-indazole]
plasma half-life (T1/2) [3, 4]: 2.6 h
AUC(0-t) ([3]; female, PO, 25 mg/kg, vehicle PEG400:H2O pH 2.3 30:70): > 245000 ng·h/mL
Cmax ([3]; female, PO, 25 mg/kg, vehicle PEG400:H2O pH 2.3 30:70, read-out: Cmax): > 50000 ng/mL
concentration at 7 h [3, 5]: 9520 ng/mL

SMILES: Cc1cc(C(=O)Nc2cc(Nc3ccc4c(/C=C/c5ccccn5)n[nH]c4c3)ccc2C)n(C)n1 [Example 49(b), 6-[N-(3-((1,3-Dimethyl-1H-pyrazol-5-yl)carboxamido)-4-methylphenyl)amino]-3-E-[2-(pyridin-2-yl)ethenyl]-1H-indazole]
IC50 [2]: ~10 nM
AUClast [3, 4]: 33750 ng·h/mL
Cmax [3, 4]: 5000 ng/mL
concentration at 7 h [3, 5]: 5000 ng/mL

SMILES: O=C(NCc1ccncc1)c1ccccc1Sc1ccc2c(/C=C/c3ccccn3)n[nH]c2c1 [Example 35(p), 6-[2-((Pyrid-4-yl)methylcarbamoyl)phenylsulfanyl]-3-E-[2-(pyridin-2-yl)ethenyl]-1H-indazole]
IC50 [2]: > 30 nM
AUClast [3, 4]: 1435 ng·h/mL
plasma half-life (T1/2) [3, 4]: 1.3 h
concentration at 7 h [3, 5]: 5 ng/mL

SMILES: CCn1nc(C)cc1C(=O)Nc1cc(Nc2ccc3c(/C=C/c4ccccn4)n[nH]c3c2)c(F)cc1C.Cl [Example 59(c), 6-[N-(5-((1-Ethyl-3-methyl-1H-pyrazol-5-yl)carboxamido)-2-fluoro-4-methylphenyl)amino]-3-E-[2-(pyridin-2-yl)ethenyl]-1H-indazole Hydrochloride]
AUC(0-t) ([3]; female, PO, 25 mg/kg, vehicle CMC): 327000 ng·h/mL
Cmax ([3]; female, PO, 25 mg/kg, vehicle CMC, read-out: Cmax): 50000 ng/mL
